# Paper PMC6508984 (Journal of medicinal chemistry, 2019)
# Key:
# GluA2(R)o = GluA2(R)o (Rattus norvegicus, UniProt P19491, Q607R); conditions: Hill coefficient of binding curve
# GluA3o = GluA3o (Rattus norvegicus, UniProt P19492); conditions: Hill coefficient of binding curve
# GluA4o = GluA4o (Rattus norvegicus, UniProt P19493); conditions: Hill coefficient of binding curve
# GluA1o = GluA1o (Rattus norvegicus, UniProt P19490); conditions: Hill coefficient of binding curve
# GluA2i(Q) = GluA2i(Q) (Rattus norvegicus, UniProt P19491); assay: Ca2+/Fluo-4 assay, GluA2; format: cell-based; conditions: for GluA2i(Q) SAR@: concentration giving significant agonist response >5% of the maximal response induced by (S)-Glu: HEK293, complete concentration-response curve could not be obtained
# GluA3i = GluA3i (Rattus norvegicus, UniProt P19492); assay: Ca2+/Fluo-4 assay, GluA3i-HEK293 cell line; format: cell-based
# GluA1i = GluA1i (Rattus norvegicus, UniProt P19490); assay: Ca2+/Fluo-4 assay, GluA1i-HEK293 cell line; format: cell-based
# GluA4i = GluA4i (Rattus norvegicus, UniProt P19493); assay: cell-based; conditions: GluA4i EC50, HEK293; 10 mM Ca2+ and 100 μM cyclothiazide; tested up to 1000 μM
# GluN1/2B = GluN1/2B (Rattus norvegicus, UniProt P35439+Q00960); conditions: 100 μM, in absence of both Glu and Gly
# GluN1/2D = GluN1/2D (Rattus norvegicus, UniProt P35439+Q62645); conditions: 100 μM, in absence of both Glu and Gly
# GluN1/2C = GluN1/2C (Rattus norvegicus, UniProt P35439+Q00961); conditions: 100 μM, in absence of both Glu and Gly
# Chain of GluA2i(Q) (P19491 22-883 isoform P19491-2 limits assumed): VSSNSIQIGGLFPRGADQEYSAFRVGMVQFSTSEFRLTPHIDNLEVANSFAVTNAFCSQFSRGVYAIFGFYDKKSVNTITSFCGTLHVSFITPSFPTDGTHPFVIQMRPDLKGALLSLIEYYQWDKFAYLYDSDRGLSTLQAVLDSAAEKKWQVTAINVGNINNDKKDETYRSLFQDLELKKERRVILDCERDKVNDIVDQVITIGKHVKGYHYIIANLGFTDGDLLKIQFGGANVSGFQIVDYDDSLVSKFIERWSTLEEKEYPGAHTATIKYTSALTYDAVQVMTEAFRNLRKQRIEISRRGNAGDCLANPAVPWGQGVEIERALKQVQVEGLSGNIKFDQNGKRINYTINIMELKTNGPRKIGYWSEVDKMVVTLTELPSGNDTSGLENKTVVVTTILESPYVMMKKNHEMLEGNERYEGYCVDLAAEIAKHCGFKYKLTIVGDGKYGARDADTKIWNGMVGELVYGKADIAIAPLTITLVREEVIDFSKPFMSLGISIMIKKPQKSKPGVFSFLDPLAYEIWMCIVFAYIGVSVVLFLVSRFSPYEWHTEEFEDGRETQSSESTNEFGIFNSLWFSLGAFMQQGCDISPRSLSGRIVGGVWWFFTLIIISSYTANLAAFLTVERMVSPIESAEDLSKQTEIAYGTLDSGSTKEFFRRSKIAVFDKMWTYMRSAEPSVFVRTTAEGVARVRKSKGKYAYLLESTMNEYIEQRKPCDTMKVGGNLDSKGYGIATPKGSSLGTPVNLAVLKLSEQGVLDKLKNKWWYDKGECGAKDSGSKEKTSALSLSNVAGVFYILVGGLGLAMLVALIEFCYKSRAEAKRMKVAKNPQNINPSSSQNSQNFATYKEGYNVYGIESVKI
# Chain of GluA2(R)o (P19491 22-883 Q607R): as the sequence (P19491 22-883 isoform P19491-2 limits assumed) above, with Q586R, T744N, P745A, S754N, V758L, A775S, K776G, D777G, S778G, G779D counted along it
# Chain of GluA3o (P19492 23-888): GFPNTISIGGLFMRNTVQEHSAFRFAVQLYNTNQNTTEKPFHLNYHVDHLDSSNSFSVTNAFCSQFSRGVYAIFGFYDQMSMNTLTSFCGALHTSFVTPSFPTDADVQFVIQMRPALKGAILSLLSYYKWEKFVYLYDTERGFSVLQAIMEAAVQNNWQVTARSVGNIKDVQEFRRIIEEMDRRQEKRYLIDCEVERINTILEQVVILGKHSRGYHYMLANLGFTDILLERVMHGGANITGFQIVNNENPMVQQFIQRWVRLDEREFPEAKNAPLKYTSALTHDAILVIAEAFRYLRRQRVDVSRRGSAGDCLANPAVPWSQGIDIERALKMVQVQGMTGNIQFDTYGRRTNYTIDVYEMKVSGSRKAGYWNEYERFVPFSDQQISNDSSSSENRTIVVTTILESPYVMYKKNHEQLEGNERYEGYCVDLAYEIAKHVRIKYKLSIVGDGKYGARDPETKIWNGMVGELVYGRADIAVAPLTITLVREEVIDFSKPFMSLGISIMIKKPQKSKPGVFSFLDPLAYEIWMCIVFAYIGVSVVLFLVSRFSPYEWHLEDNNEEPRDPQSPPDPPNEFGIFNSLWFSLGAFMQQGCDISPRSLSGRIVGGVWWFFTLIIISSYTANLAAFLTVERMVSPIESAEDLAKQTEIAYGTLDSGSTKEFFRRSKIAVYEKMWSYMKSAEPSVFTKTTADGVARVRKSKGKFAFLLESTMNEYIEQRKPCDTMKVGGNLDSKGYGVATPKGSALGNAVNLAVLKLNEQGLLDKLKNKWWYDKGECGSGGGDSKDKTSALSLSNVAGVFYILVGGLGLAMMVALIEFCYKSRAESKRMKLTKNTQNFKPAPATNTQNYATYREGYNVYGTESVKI
# Chain of GluA1o (P19490 19-907): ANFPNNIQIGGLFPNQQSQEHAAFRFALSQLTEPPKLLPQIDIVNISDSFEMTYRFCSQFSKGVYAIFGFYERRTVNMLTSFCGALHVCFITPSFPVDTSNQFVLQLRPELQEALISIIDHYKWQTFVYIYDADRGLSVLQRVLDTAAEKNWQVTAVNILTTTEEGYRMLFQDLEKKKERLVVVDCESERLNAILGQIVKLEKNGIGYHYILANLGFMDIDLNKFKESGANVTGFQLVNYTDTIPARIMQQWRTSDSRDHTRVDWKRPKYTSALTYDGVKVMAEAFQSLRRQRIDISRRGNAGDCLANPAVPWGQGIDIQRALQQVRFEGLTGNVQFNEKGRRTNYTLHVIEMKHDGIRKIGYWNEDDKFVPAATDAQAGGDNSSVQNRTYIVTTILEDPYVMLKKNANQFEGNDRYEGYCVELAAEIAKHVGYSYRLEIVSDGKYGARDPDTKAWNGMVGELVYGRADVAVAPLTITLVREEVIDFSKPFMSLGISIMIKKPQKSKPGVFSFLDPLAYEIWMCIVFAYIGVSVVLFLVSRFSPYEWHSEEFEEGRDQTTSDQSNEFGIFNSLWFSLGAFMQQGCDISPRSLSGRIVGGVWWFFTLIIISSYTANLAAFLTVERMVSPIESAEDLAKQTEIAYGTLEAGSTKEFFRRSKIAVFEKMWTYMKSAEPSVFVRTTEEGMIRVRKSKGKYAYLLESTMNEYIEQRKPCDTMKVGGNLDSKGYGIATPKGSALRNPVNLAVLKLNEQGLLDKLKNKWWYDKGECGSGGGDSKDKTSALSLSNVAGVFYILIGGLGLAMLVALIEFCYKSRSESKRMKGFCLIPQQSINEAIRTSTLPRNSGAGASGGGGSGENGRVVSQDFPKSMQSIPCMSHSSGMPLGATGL
# Chain of GluA1i (P19490 19-907 isoform P19490-2 limits assumed): as the sequence (P19490 19-907) above, with N740G, N750S, L754V, N760S, G772K, G773D, G774S, D775G counted along it
# Chain of GluA3i (P19492 23-888 isoform P19492-2 limits assumed): as the sequence (P19492 23-888) above, with N748T, A749P, N758S, L762I, S779A, G780K, G781D, G782S, D783G counted along it
# Chain of GluA4i (P19493 22-902 isoform P19493-2 limits assumed): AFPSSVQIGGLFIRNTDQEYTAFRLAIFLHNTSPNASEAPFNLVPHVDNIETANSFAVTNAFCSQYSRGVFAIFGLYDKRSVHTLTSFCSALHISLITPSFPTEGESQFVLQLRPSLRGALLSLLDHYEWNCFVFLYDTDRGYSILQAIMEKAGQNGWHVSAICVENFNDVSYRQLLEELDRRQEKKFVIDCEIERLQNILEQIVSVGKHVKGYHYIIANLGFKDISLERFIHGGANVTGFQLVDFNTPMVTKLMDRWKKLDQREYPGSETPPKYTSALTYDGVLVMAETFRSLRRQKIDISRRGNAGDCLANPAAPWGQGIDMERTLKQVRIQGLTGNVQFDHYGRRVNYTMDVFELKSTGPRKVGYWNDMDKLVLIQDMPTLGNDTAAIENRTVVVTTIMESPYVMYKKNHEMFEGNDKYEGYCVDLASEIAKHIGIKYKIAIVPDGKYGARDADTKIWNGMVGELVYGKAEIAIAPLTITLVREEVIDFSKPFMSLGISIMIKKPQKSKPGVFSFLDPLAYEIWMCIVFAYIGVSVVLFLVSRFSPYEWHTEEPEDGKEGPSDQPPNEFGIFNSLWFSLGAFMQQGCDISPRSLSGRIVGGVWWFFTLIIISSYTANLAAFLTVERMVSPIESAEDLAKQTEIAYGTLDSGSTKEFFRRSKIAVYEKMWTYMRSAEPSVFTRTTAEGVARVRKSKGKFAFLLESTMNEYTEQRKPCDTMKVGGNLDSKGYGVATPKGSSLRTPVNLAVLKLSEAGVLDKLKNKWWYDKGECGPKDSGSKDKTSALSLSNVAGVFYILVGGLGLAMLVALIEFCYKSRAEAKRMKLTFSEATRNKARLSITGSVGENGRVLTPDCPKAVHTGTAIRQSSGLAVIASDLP
# Chain of GluA4o (P19493 21-902): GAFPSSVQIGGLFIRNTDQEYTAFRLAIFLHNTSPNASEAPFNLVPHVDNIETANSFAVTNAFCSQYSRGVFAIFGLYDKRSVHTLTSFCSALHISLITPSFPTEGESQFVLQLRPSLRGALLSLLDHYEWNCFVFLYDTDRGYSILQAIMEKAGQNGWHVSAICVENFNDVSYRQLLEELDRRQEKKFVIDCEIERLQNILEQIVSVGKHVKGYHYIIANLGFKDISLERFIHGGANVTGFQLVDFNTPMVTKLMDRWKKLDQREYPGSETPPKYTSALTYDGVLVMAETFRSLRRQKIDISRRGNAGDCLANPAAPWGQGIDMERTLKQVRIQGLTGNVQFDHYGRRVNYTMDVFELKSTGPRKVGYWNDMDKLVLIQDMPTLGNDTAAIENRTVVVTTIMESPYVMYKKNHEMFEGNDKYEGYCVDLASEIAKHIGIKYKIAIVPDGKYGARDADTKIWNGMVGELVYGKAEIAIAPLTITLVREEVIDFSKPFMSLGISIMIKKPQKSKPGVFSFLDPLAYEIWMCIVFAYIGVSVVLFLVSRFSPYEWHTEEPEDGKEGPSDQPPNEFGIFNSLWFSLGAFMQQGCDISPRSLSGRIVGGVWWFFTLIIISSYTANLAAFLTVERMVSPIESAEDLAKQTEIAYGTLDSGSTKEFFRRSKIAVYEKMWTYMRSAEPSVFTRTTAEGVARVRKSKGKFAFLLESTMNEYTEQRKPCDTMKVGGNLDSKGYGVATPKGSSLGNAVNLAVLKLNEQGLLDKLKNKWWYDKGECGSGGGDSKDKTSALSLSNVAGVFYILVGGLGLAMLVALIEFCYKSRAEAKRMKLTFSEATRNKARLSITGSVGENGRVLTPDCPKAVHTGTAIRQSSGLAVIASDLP
SMILES,GluA2(R)o nH (GluA2(R)o),GluA3o nH (GluA3o),GluA1o nH (GluA1o),GluA2i(Q) SAR@: concentration giving significant agonist response >5% of the maximal response induced by (S)-Glu (GluA2i(Q)),EC50 (GluA3i),EC50 (GluA1i),EC50 (GluA2i(Q)),also measured
"Cn1nnc(O)c1CC(N)C(=O)O (racemic) [Compound 6a, (RS) 2-Amino-3-(4-hydroxy-1-methyl-1H-1,2,3-triazol-5-yl)propanoic acid]",0.95 ± 0.09,0.95 ± 0.25,1.02 ± 0.17,SAR@ 300 μM,–,–,–,GluA4o nH (GluA4o): 0.89 ± 0.07
"CCCn1nnc(O)c1CC(N)C(=O)O (racemic) [Compound 6c, (RS) 2-Amino-3-(4-hydroxy-1-propyl-1H-1,2,3-triazol-5-yl)propanoic acid]",1.55 ± 0.65,0.75 ± 0.09,0.81 ± 0.07,SAR@ 1000 μM,–,–,–,–
"CCn1nc(O)c(CC(N)C(=O)O)n1 (racemic) [Compound 7b, (RS) 2-Amino-3-(2-ethyl-5-hydroxy-2H-1,2,3-triazol-4-yl)propanoic acid]",–,–,–,–,> 1000 µM,> 1000 µM,> 1000 µM,EC50 (GluA4i): > 1000 µM
"CCCn1nc(O)c(CC(N)C(=O)O)n1 (racemic) [Compound 7c, (RS) 2-Amino-3-(5-hydroxy-2-propyl-2H-1,2,3-triazol-4-yl)propanoic acid]",–,–,–,–,> 1000 µM,> 1000 µM,> 1000 µM,–
"Cn1nc(O)c(C(N)C(=O)O)n1 (racemic) [Compound 8, (RS) 2-Amino-2-(5-hydroxy-2-methyl-2H-1,2,3-triazol-4-yl)acetic acid]",–,–,–,–,–,–,–,Activation by compound alone (GluN1/2B): able to activate; Activation by compound alone (GluN1/2D): able to activate; Activation by compound alone (GluN1/2C): able to activate
